Data: patent US6509369B2, “Anti-inflammatory compounds” (Ortho-McNeil Pharmaceutical, Inc., priority 1997, dated 2003)

Experiments:
[1] = biological target: T1, human glucocorticoid receptor (hGR) (Homo sapiens, UniProt P04150); assay: human glucocorticoid receptor binding assay (displacement of 3(H) Triamcinolone acetonide); details: for hGR, value given as %: concentration not given
T1 construct: made in house; host or cells: Sf21 insect cells infected with baculovirus hGR, OR IM9 lymphoblast cell line (endogenous hGR)
T1 sequence (P04150 1-777): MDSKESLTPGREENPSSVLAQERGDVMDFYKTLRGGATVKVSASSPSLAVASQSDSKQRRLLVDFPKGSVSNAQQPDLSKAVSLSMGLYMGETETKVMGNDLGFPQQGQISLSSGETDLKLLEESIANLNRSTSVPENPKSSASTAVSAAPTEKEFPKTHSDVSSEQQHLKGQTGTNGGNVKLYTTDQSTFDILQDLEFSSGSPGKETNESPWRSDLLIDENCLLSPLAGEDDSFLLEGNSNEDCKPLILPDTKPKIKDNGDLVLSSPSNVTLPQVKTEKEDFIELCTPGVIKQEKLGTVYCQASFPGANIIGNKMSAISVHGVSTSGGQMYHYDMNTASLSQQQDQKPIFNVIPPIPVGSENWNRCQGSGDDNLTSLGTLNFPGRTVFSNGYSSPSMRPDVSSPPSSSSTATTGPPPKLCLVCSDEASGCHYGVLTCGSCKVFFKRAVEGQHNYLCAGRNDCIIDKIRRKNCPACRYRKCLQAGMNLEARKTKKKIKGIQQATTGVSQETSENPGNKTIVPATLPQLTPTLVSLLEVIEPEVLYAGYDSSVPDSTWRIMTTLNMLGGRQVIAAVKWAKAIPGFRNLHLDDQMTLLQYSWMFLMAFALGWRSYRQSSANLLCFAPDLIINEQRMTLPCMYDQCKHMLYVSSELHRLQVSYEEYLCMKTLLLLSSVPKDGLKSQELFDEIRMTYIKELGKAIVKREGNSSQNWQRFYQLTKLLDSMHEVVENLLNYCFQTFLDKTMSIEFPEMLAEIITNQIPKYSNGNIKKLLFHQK
Experimental: A human glucocorticoid receptor binding assay was carried out to determine the extent to which the compounds of this invention have the ability to bind to human glucocorticoid receptors. This binding ability may be indicative of the antiinflammatory activity of the compound. The test was carried out as follows.
Human glucocorticoid receptors were prepared from either insect cells (Sf21) infected with baculovirus hGR or from a lymphoblast cell line which expresses high levels of endogenous hGR (IM9). The receptor binding reactions, with or without test compounds, were set up in 96-well microtiter plates which were previously siliconized with SIGMACOTE™, a chlorinated organopolysiloxane in heptane. The binding components, 3(H) Triamcinolone acetonide (TAA), glycerol/molybdate-containing buffer and unlabeled compounds were added to the wells using a combination of BIOMEK laboratory automation system and repeat pipettes. After four hours of incubation, the samples were precipitated with polyethylene glycol and filtered through Whatman GF/F paper using a TOMTEK cell harvester. The filter mate with 96 samples were bound to a solid-phase scintillant and directly counted in a BETAPLATE counter. […] The activity of test compounds to displace 3(H) TAA binding to hGR is also expressed as percent inhibition at 1 μM.

[2] = tested on: human progesterone receptor (hPR); assay: human progesterone receptor binding assay (displacement of 3(H) R5020 Promegestone)
Experimental: A human progesterone receptor binding assay was performed in order to determine selectivity of the compounds, as follows. Human progesterone receptors were prepared from either insect cells (SF21) infected with baculovirus hPR A, or from a breast cancer cell line, T47D, which expresses high levels of endogenous hPR. The receptor binding reactions, with or without test compounds, were set up in 96-well microtiter plates which were previously siliconized with SIGMACOTE. The binding components, 3(H) R5020 Promegestone, a high affinity ligand for the progesterone receptors, glycerol/molybdate-containing buffer and unlabeled compounds were added to the wells using a combination of BIOMEK laboratory automation system and repeat pipettes. After overnight incubation, the samples were precipitated with polyethylene glycol and filtered through Whatman GF/F paper using a TOMTEK cell harvester. The filter mate with 96 samples were bound to a solid-phase scintillant and directly counted in the BETAPLATE counter. Only those compounds that were active in the human glucocorticoid receptor assay set forth in Example 30 were used for progesterone receptor binding to determine cross-reactivity profiles, if any. The activity of test compounds to displace 3(H) R5020 binding to hPR is expressed as percent inhibition at the two concentrations, 10^−6 and 10^−5 Molar.

[3] = tested on: oxazolone-induced ear swelling (MOCH) in albino male CD-1 mice; assay: mouse oxazolone-induced contact hypersensitization (MOCH) ear swelling; type: in vivo; details: for Oxazolone Ear Swelling (MOCH) % inhibition vs. Vehicle at 1 mg: topical to mouse ear, one hour after oxazolone challenge, ear biopsy weight at 24 hours; for topical antiinflammatory activity in the oxazolone model (in words): mouse ear
Experimental: Several triphenylpropanamide compounds of this invention, having varying affinities for the human glucocorticoid receptor, were tested for topical antiinflammatory activity in mouse ear inflammation models. […] Compounds having receptor affinities closer to hydrocortisone were as nearly active as hydrocortisone in suppressing mouse oxazolone-induced contact hypersensitization (MOCH) and phorbol ester-induced ear edema. The in vivo studies of this example were conducted as follows.
In determining the MOCH using the compounds of this invention, albino male CD-1 mice, 7-9 weeks old were induced on the shaved abdomen with 50 μl of 3% oxazolone in acetone/corn oil (Day 0). On Day 5, a 20 μl volume of 2% oxazolone in acetone was applied to the dorsal left ear of the mouse . Compounds (made in ethanol/propylene glycol, 70:30) were applied to the left ear in 20 μl volume, one hour after oxazolone challenge. The right ear was not treated. The mice were sacrificed by carbon dioxide inhalation 24 hours after oxazolone challenge, the left and right ears were removed and a 7 mm biopsy was removed from each ear and weighed. The difference in biopsy weights between the right and left ears was calculated. Antiinflammatory effects of compounds were evident as an inhibition of the increase in ear weight.

SMILES	IC50 [1]	hPR % inh 10 μM [2]	hGR, value given as % [1]	Oxazolone Ear Swelling (MOCH) % inhibition vs. Vehicle at 1 mg [3]	topical antiinflammatory activity in the oxazolone model (in words) [3]
O=C(Cc1ccccc1Cl)NCC1(c2ccccc2)CC1(c1ccccc1)c1ccccc1 (stereo not shown) [Compound 80, N-(2chlorophenyl)acetyl-1,2,2-triphenylcyclopropylmethylamine]	955 nM	−11%	–	–	–
COc1ccccc1CCC(=O)NCC(c1ccccc1)C(c1ccccc1)c1ccccc1 (stereo not shown) [Compound 20]	58 nM	9%	–	–	–
O=C(Cc1ccsc1)NCC1(c2ccccc2)CC1(c1ccccc1)c1ccccc1 (stereo not shown) [Compound 89]	570 nM	22%	–	–	–
O=C(Cc1ccccc1)NCC(c1ccccc1)C(c1ccc(F)cc1)c1ccc(F)cc1 (stereo not shown) [Compound 18, N-[3,3-bis-(4-fluorophenyl)-2-phenylpropyl]-2-phenylacetamide]	610 nM	14.1%	–	–	–
Cc1ccc(C(=O)NCC(c2ccccc2)C2c3ccccc3-c3ccccc32)s1 (stereo not shown) [Compound 72]	–	–	33%	50%	–
O=C(Cc1ccc(C(F)(F)F)cc1)NCC(c1ccccc1)C(c1ccccc1)c1ccccc1 (stereo not shown) [Compound 12]	1500 nM	15%	–	–	–
CC(C)(C)C(=O)NCC1(c2ccccc2)CC1(c1ccccc1)c1ccccc1 (stereo not shown) [Compound 86]	665 nM	12.6%	–	–	–
COc1ccc(CC(=O)NCC2(c3ccccc3)CC2(c2ccccc2)c2ccccc2)cc1OC (stereo not shown) [Compound 79]	1000 nM	24.5%	–	–	–
O=C(CCc1ccccc1)NCC(c1ccccc1)C(c1ccccc1)c1ccccc1 (stereo not shown) [Compound 19]	141 nM	24%	–	–	–
COc1ccccc1CCC(=O)NCC(c1ccccc1)C(c1ccc(F)cc1)c1ccc(F)cc1 (stereo not shown) [Compound 23]	22 nM	–	–	–	moderate topical activity
O=C(NCC1(c2ccccc2)CC1(c1ccccc1)c1ccccc1)Oc1ccc(Cl)cc1 (stereo not shown) [Compound 97]	157 nM	12.5%	–	–	–
CCCCC(=O)NCC1(c2ccccc2)CC1(c1ccccc1)c1ccccc1 (stereo not shown) [Compound 87]	681 nM	19.8%	–	–	–
O=C(Cc1ccccc1Cl)NCC(c1ccccc1)C1c2ccccc2-c2ccccc21 (stereo not shown) [Compound 68]	–	–	46%	28%	–
Cc1ccc(CC(=O)NCC(c2ccccc2)C(c2ccccc2)c2ccccc2)cc1 (stereo not shown) [Compound 4]	528 nM	12%	–	–	–
O=C(Cc1ccccc1C(F)(F)F)NCC(c1ccccc1)C(c1ccccc1)c1ccccc1 (stereo not shown) [Compound 10]	780 nM	15%	–	–	–
O=C(Cc1ccccc1)NCC(c1ccc(Cl)cc1)C(c1ccccc1)c1ccccc1 (stereo not shown) [Compound 14]	72 nM	18%	–	–	–
O=C(Cc1ccccc1C(F)(F)F)NCC(c1ccccc1)C1c2ccccc2-c2ccccc21 (stereo not shown) [Compound 69]	–	–	15%	43%	–
O=C(Cc1c(Cl)cccc1Cl)NCC(c1ccccc1)C(c1ccccc1)c1ccccc1 (stereo not shown) [Compound 8]	340 nM	3%	–	–	–
COc1ccccc1CC(=O)NCC(c1ccccc1)C(c1ccccc1)c1ccccc1 (stereo not shown) [Compound 5]	–	–	62%	13%	–
O=C(Cc1ccccc1Cl)NCC(c1ccccc1)C(c1ccc(F)cc1)c1ccc(F)cc1 (stereo not shown) [Compound 16]	45 nM	–	–	–	moderate topical activity
